Reference: PMC9952648, “Structural Features Governing the Metabolic Stability of Tetraethyl-Substituted Nitroxides in Rat Liver Microsomes” (Antioxidants, 2023)
Read-outs that look alike come from different tables or passages of the source. Marks after values point to notes of the source that are not given here.

What was measured:
[1] = system: liver homogenates; set-up: method as in PMID 34641310; settings: ref 29; cited from earlier work
[2] = system: rat liver microsomes (RLM); settings: anaerobic; for EPR signal regenerated by reoxidation with potassium ferricyanide: ferricyanide 1 mM added to whole system after 30 min incubation (nitroxide 5: with simultaneous Clo 25 μM)
Protocol: Addition of NADPH to a final concentration of 1 mM started the reaction. Samples were mixed and transferred to glass microcapillary pipettes (50 μL, Hirschmann) that had been previously purged with N2.

[3] = Reduction of nitroxides by excess ascorbate monitored by stopped-flow EPR; assay type: physicochemical; settings: potassium phosphate buffer 0.1 M, pH 7.4, equilibrated with air, 21 °C; This work
From the text: A 4-bore AquaX quartz cell (Bruker) inserted into the cavity was connected to a Bio-Logic MPS-51 stop-flow apparatus with three syringes (Bio-Logic, Claix, France) controlled by the Bio-Logic MPS software. […] The initial second-order reaction rate constant of the reaction of nitroxides with ascorbate, k0 values was derived from experimental results as previously described.

[4] = system: rat liver microsomes (RLM); experiment: Aerobic incubation of nitroxides with rat liver microsomes and NADPH monitored by EPR; settings: for Nitroxide recovered upon reoxidation with potassium ferricyanide: ferricyanide 1 mM added to whole system after 30 min incubation; for Initial rate of decrease, + Clo / Initial rate of decrease, + Clo (per P450): whole system + clotrimazole 25 μM; for Initial rate of decrease, + Clo / Initial rate of decrease, + Clo (per P450) / Initial rate of decrease, +DPI / Initial rate of decrease, +DPI (per P450) / Initial rate of decrease, -NADPH / Initial rate of decrease, -RLM: nitroxide 100 µM; for Initial rate of decrease, +DPI / Initial rate of decrease, +DPI (per P450): whole system + diphenyliodonium chloride 100 μM; for Initial rate of decrease, WS / Initial rate of decrease, WS (per P450): whole system: nitroxide 100 µM + RLM + NADPH, pH 7.4, 21 °C; for Initial rate of decrease, -NADPH: without NADPH; for Initial rate of decrease, -RLM: without RLM; for Decay in 30 min (conversion by P450): RLM + NADPH
[5] = cited from earlier work
[6] = whole system + clotrimazole 25 μM, nitroxide 100 μM
[7] = whole system + diphenyliodonium chloride 100 μM, nitroxide 100 μM
[8] = whole system: nitroxide 100 μM + RLM + NADPH, pH 7.4, 21 °C
[9] = reaction measured with ascorbate and glutathione mixtures

| Compound | EPR signal regenerated by reoxidation with potassium ferricyanide [2] | Initial second-order reaction rate constant k0 for reduction by excess ascorbate [3] [M⁻¹ s⁻¹] | Nitroxide recovered upon reoxidation with potassium ferricyanide [4] | Initial rate of decrease, + Clo [4] | Initial rate of decrease, +DPI [4] | Initial rate of decrease, WS [4] [nmol·min^−1·mg^−1 prot] | Initial rate of decrease, WS (per P450) [4] [nmol·min^−1·nmol^−1 P450] | Initial rate of decrease, -NADPH [4] | Initial rate of decrease, -RLM [4] | Initial second-order reaction rate constant k0 for reduction by excess ascorbate [5, 9] | Initial second-order reaction rate constant k0 for reduction by excess ascorbate ([5]; ref 42) [M⁻¹ s⁻¹] | further results |
| --- | --- | --- | --- | --- | --- | --- | --- | --- | --- | --- | --- | --- |
| CCC1(CC)CC(CN)C(CC)(CC)N1[O] (centres unmarked) [Compound 6, 3-(aminomethyl)-2,2,5,5-tetraethylpyrrolidineyloxyl] | – | – | – | – | – | – | – | – | – | – | – | Decay in liver homogenates [1]: significantly decayed |
| CCC1(CC)CC(CNC(=O)C[P+](c2ccccc2)(c2ccccc2)c2ccccc2)C(CC)(CC)N1[O].[Cl-] (centres unmarked) [Compound 7, 3-(2-triphenylphosphonio)acetamidomethyl-2,2,5,5-tetraethylpyrrolidine-1-oxyl chloride] | – | – | – | – | – | – | – | – | – | – | – | Decay in liver homogenates [1]: significantly decayed |
| CC1(C)CC(=O)CC(C)(C)N1[O] [Nitroxide 1, 2,2,6,6-tetramethyl-4-oxo(piperidine-1-yloxyl) radical, reference compound] | 37% | 6.9 ± 0.1 | 15% | 1.2 ± 0.3 nmol·min^−1·mg^−1 prot | 5.1 ± 0.3 nmol·min^−1·mg^−1 prot | 11.1 ± 0.8 | 2.8 ± 0.2 | 0.0 *** nmol·min^−1·mg^−1 prot | 0.0 *** nmol·min^−1·mg^−1 prot | 7.2 ± 0.8 ^a M^−1·s^−1 | 5.75 ± 0.04 | Initial rate of decrease, + Clo [2, 6]: 4.3 ± 0.4 nmol·min^−1·mg^−1·prot; Initial rate of decrease, + Clo (per P450) [2, 6]: 1.1 ± 0.2 nmol·min^−1·nmol^−1·P450; Initial rate of decrease, +DPI [2, 7]: 2.7 ± 0.3 nmol·min^−1·mg^−1·prot; Initial rate of decrease, +DPI (per P450) [2, 7]: 0.70 ± 0.08 nmol·min^−1·nmol^−1·P450; Initial rate of decrease, WS [2, 8]: 19.3 ± 0.9 nmol·min^−1·mg^−1·prot; Initial rate of decrease, WS (per P450) [2, 8]: 5.0 ± 0.5 nmol·min^−1·nmol^−1·P450; Initial rate of decrease, -NADPH ([2]; without NADPH, nitroxide 100 μM): 0.0 ** nmol·min^−1·mg^−1·prot; Initial rate of decrease, -RLM ([2]; without RLM, nitroxide 100 μM): 0.0 ** nmol·min^−1·mg^−1·prot; Initial rate of decrease, + Clo (per P450) [4]: 0.30 ± 0.09 nmol·min^−1·nmol^−1 P450; Initial rate of decrease, +DPI (per P450) [4]: 1.31 ± 0.07 nmol·min^−1·nmol^−1 P450; Initial second-order reaction rate constant k0 for reduction by excess ascorbate ([5]; ref 57): 6.9 ± 0.7 M⁻¹ s⁻¹ |
| CC1(C)CC(C(=O)O)C(C)(C)N1[O] (centres unmarked) [Nitroxide 2, 3-carboxy-2,2,5,5-tetramethyl-1-pyrrolidinyloxyl] | – | 0.072 ± 0.003 | 42% | 0.94 ± 0.09 nmol·min^−1·mg^−1 prot | 2.1 ± 0.3 nmol·min^−1·mg^−1 prot | 4.8 ± 0.8 | 1.2 ± 0.1 | 0.0 ** nmol·min^−1·mg^−1 prot | 0.0 ** nmol·min^−1·mg^−1 prot | 0.060 ± 0.003 ^a M^−1·s^−1 | 0.079 ± 0.001 | Initial rate of decrease, + Clo (per P450) [4]: 0.24 ± 0.03 nmol·min^−1·nmol^−1 P450; Initial rate of decrease, +DPI (per P450) [4]: 0.54 ± 0.07 nmol·min^−1·nmol^−1 P450; Initial second-order reaction rate constant k0 for reduction by excess ascorbate ([5]; ref 70): 0.11 ± 0.01 M⁻¹ s⁻¹ |
| CCC1(CC)CC(C(=O)O)C(CC)(CC)N1[O] (centres unmarked) [Nitroxide 3, 3-carboxy-2,2,5,5-tetraethyl-1-pyrrolidinyloxyl] | hardly detectable | 0.0011 ± 0.0002 | not the case | 0.0 ** nmol·min^−1·mg^−1 prot | 0.0 ** nmol·min^−1·mg^−1 prot | 1.8 ± 0.2 | 0.46 ± 0.05 | 0.0 ** nmol·min^−1·mg^−1 prot | 0.0 ** nmol·min^−1·mg^−1 prot | 0.0011 ± 0.0002 ^a M^−1·s^−1 | 0.002 ± 0.001 | Decay in 30 min (conversion by P450) [4]: 5–10%; Initial second-order reaction rate constant k0 for reduction by excess ascorbate ([5]; ref 30): ≤0.001 M⁻¹ s⁻¹ |
| CCC1(CC)C=C(C(=O)O)C(CC)(CC)N1[O] [Nitroxide 4, 3-carboxy-2,2,5,5-tetrethyl-pyrrolinyloxyl] | hardly detectable | 0.0077 ± 0.0009 | not the case | 0.0 ** nmol·min^−1·mg^−1 prot | 0.0 ** nmol·min^−1·mg^−1 prot | 0.84 ± 0.09 | 0.22 ± 0.03 | 0.0 ** nmol·min^−1·mg^−1 prot | 0.0 ** nmol·min^−1·mg^−1 prot | 0.00122 ± 0.00003 ^a M^−1·s^−1 | – | Decay in 30 min (conversion by P450) [4]: 5–10% |
| CCC1(CC)c2ccc(C(=O)O)cc2C(CC)(CC)N1[O] [Nitroxide 5, 5-carboxy-1,1,3,3-tetraethyl-2-isoindolinyloxyl] | 30% | 0.02 ± 0.01 | not the case | 0.0 *** nmol·min^−1·mg^−1 prot | 0.0 *** nmol·min^−1·mg^−1 prot | 3.4 ± 0.2 | 0.88 ± 0.05 | 0.0 *** nmol·min^−1·mg^−1 prot | 0.0 *** nmol·min^−1·mg^−1 prot | – | – | New six-line paramagnetic species formed, share of the initial nitroxide ([4]; 300 μM nitroxide, RLM 30 μM P450, 2 mM NADPH, 21 °C, at 10 min (maximum)): 7% |
